For series [1], the system named is metastatic basal cell cancer. As to conditions: for response to earlier therapy: brain, bone and liver metastases, therapies before nivolumab. An excerpt: The interaction of this ligand (PD-L1) with the programmed death receptor (PD-1), expressed on T and B cells, alters the function of these cells leading to inhibition of autoimmunity and anti-tumor immunity.
The patient was started on nivolumab (OPDIVO®, anti-PD-1 antibody).

The nature of series [2]: Tolerability in type 2 diabetes patient (Example 6). The format is in vivo, human. An excerpt: A person over-weight man (Body Mass Index=37.5, clinical obesity class 2) with a 5-year history of type 2 diabetes consults a Diabetes Specialty Clinic in Paris (France) for recent weight gain, foot pain, and persistent nocturia. At the time of their initial appointment, the patient was taking simvastatin (ZOCOR®) for a hyperlipidemia and a “pancreatic elixir” in an attempt to improve their diabetes control. […] The laboratory tests performed the same day confirms the uncontrolled type 2 diabetes (evaluated by a level of glycosylated hemoglobin=8.3%-normal<7%), a normo-lipidemia, and an elevated urine micro-albumin level. The physician ordered a urine metabolite profiling. The post-analysis review of the results highlighted the upregulation of the IL-1 (interleukin 1), TNF (Tumor Necrosis Factor), and mTOR (Mammalian Target of Rapamycin) signaling pathways.
The association of IL-1 and TNF inhibitors together is not considered by the system, as it increases the risk of serious infections. […] All of these drugs are approved by the ANSM (French Agency for Medicines and Medical Products Security).

In series [3] the test system is hepatocellular carcinoma (HCC) with CDKN2A and CTNNB1 mutations. As to the kind of experiment: Clinical outcome of hepatocellular carcinoma patient (Example 1). As to conditions: metastatic HCC after chemoembolization, before molecular profiling. In kind it is in vivo, human. An excerpt: Six months later, the physician logs in to the system via the web-interface and completes the physician's feedback survey regarding the regimen prescribed to their patient and the outcome observed. […] The entry corresponding to this observation was created in the clinical outcome database and will then be used in order to optimize similar cases.

For the compound `N.N.[Cl][Pt][Cl]` [cisplatin], in series [1], the “response to earlier therapy” value was “short-lived response”.

As for `COc1ccc(Cl)cc1C(=O)NCCc1ccc(S(=O)(=O)NC(=O)NC2CCCCC2)cc1` [glibenclamide], in series [2] (human, in vivo), the “adverse effects that led to stopping the drug” value was “dizziness, sweating, and agitation”.

In the case of `CC(=O)O[C@H]1C(=O)[C@@]2(C)[C@H]([C@H](OC(=O)c3ccccc3)[C@]3(O)C[C@H](OC(=O)[C@H](O)[C@@H](NC(=O)c4ccccc4)c4ccccc4)C(C)=C1C3(C)C)[C@]1(OC(C)=O)CO[C@@H]1C[C@@H]2O` [paclitaxel], in series [1], the “response to earlier therapy” value was “short-lived response”.

Regarding `CCC(C)(C)C(=O)O[C@H]1C[C@@H](C)C=C2C=C[C@H](C)[C@H](CC[C@@H]3C[C@@H](O)CC(=O)O3)[C@H]21` [simvastatin], in series [2] (taken for hyperlipidemia), the tolerability entry is listed as “well-tolerated”.

Take `Cc1c(C(=O)Nc2ccc(N3C[C@@H](C)O[C@@H](C)C3)nc2)cccc1-c1ccc(OC(F)(F)F)cc1` [sonidegib]: the “response to earlier therapy” value in series [1] was “non-responsive”.

Turning to `CNC(=O)c1cc(Oc2ccc(NC(=O)Nc3ccc(Cl)c(C(F)(F)F)c3)cc2)ccn1` [sorafenib], in series [3], the “disease course under treatment” value is reported as “continued to progress”.

`CS(=O)(=O)c1ccc(C(=O)Nc2ccc(Cl)c(-c3ccccn3)c2)c(Cl)c1` [vismodegib]: in series [1], the “response to earlier therapy” value was “non-responsive”.

As for nivolumab: anti-PD-1 antibody, the response on scans entry in series [1] (after two months, PD-L1 (CD274) amplification) is listed as “remarkable partial remission”. Besides, the toxicity result in series [1] (human, in vivo) is given as “no toxicity”.

(Values after patent US11434534B2, “Optimizing therapeutic options in personalized medicine” (CureMatch, Inc., priority 2016, dated 2022).)
